From ChEMBL document CHEMBL1909046, “DrugMatrix in vitro pharmacology data”

Tests used:
[1] = target: Prostaglandin G/H synthase 1 (Homo sapiens, UniProt P23219); assay: biochemical; type: tissue-based, Platelet; settings: platelet;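 further: inhibition of COX-1 enzyme activity, with arachidonic acid supplied as substrate; in other assays of this panel Not Active means under 50% inhibition at 10 µM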
[2] = DRUGMATRIX: Calcium Channel Type L, Dihydropyridine radioligand binding (ligand: [3H] Nitrendipine); type: cell membranes, Rattus norvegicus, Wistar, Cerebral cortex, Membrane; settings: Not Active = under 50% inhibition at 10 µM
[3] = target: Sigma non-opioid intracellular receptor 1 (Homo sapiens, UniProt Q99720); assay: DRUGMATRIX: Sigma1 radioligand binding (ligand: [3H] Haloperidol); type: cell membranes, Jurkat, Membrane; settings: jurkat; Not Active = under 50% inhibition at 10 µM
[4] = target: T1, Vasoactive intestinal polypeptide receptor 1 (Homo sapiens, UniProt P32241); type: cell membranes, Membrane; settings: ht-29; further: in other assays of this panel Not Active means under 50% inhibition at 10 µM
T1 sequence (P32241 whole entry): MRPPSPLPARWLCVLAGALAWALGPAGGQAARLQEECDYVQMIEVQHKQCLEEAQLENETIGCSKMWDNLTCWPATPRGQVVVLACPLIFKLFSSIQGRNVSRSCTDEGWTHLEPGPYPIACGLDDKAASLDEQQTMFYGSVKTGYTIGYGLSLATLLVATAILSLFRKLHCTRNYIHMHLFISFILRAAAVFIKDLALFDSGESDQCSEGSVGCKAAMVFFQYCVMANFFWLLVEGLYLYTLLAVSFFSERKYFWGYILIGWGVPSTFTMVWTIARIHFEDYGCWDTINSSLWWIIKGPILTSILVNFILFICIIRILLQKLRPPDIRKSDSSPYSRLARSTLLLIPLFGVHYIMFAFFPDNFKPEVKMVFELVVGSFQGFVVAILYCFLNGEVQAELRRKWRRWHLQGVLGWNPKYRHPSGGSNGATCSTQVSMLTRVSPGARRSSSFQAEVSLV

[5] = target: Mitogen-activated protein kinase 14 (Homo sapiens, UniProt Q16539); set-up: species or system Escherichia coli;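 further: inhibition of p38alpha enzyme activity in a biochemical kinase assay, with myelin basic protein serving as substrate; in other assays of this panel Not Active means under 50% inhibition at 10 µM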
[6] = target: Tyrosine-protein kinase Fyn (Homo sapiens, UniProt P06241); assay: biochemical; type: cell-based, Insect cells; settings: insect cells;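 further: enzymatic inhibition of Fyn kinase activity measured with Poly(Glu:Tyr) as the phosphorylation substrate; in other assays of this panel Not Active means under 50% inhibition at 10 µM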
Sequence of Tyrosine-protein kinase Fyn (P06241 whole entry): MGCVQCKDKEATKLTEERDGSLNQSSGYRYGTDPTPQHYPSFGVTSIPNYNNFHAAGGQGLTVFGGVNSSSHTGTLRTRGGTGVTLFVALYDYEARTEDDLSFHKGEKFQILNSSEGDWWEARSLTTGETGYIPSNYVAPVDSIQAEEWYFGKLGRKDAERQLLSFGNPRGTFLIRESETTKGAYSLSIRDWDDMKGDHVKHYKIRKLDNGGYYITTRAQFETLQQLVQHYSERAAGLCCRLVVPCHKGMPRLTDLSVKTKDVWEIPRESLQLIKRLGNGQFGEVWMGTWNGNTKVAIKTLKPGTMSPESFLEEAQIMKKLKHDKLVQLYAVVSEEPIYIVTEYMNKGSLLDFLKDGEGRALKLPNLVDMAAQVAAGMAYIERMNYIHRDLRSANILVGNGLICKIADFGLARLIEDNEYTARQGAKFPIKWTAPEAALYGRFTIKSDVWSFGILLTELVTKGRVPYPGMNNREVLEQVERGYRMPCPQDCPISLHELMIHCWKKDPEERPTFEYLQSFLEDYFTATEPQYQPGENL

Sequence of Prostaglandin G/H synthase 1 (P23219 whole entry): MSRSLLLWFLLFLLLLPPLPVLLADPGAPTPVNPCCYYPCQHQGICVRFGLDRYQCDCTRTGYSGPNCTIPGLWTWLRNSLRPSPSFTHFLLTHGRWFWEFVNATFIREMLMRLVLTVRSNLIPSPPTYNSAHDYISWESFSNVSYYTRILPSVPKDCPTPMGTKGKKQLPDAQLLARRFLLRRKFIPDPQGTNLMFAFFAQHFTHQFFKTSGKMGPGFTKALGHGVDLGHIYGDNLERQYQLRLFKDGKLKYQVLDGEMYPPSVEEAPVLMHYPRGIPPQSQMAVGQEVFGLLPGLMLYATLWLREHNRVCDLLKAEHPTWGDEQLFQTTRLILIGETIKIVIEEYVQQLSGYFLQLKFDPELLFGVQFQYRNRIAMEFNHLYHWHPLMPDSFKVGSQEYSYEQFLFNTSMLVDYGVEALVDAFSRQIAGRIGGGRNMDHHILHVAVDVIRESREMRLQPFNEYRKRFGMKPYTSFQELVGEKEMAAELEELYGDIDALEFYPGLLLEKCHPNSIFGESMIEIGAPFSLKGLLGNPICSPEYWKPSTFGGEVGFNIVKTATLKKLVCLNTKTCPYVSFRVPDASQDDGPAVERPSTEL
Sequence of Mitogen-activated protein kinase 14 (Q16539 whole entry): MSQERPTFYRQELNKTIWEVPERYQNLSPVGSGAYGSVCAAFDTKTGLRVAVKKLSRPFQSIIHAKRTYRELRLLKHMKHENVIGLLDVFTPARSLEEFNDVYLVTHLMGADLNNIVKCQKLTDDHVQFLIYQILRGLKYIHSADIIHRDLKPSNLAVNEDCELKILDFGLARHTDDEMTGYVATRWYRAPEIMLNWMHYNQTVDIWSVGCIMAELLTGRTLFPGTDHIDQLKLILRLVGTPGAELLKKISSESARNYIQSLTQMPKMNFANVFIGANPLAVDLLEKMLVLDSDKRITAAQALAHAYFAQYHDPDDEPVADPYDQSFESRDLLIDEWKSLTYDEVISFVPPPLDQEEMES
Sequence of Sigma non-opioid intracellular receptor 1 (Q99720 whole entry): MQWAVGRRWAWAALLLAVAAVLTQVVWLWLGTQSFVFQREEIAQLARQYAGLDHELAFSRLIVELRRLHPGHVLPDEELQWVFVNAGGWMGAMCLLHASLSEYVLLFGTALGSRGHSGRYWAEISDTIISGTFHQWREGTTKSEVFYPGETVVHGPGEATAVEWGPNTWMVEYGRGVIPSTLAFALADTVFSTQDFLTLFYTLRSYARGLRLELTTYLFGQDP

CO[C@@H]1[C@@H](OC)[C@H](C)[C@@](O)(CC(=O)O)O[C@H]1[C@H](C)[C@H]1O[C@@]2(CC[C@@](C)([C@H]3CC[C@@](C)([C@@H]4O[C@@H]([C@H]5O[C@](C)(O)[C@H](C)C[C@@H]5C)C[C@@H]4O[C@@H]4C[C@H](OC)[C@@H](OC)[C@H](C)O4)O3)O2)C[C@H](O)[C@H]1C.N [MADURAMICIN]
Not Active: IC50 [1] | IC50 [2] | Ki [2] | IC50 [3] | IC50 [4] | IC50 [5] | IC50 [6]

C[N+]1(C)[C@@H]2C[C@@H](OC(=O)[C@H](CO)c3ccccc3)C[C@H]1[C@@H]1O[C@@H]12.[Br-] [METHSCOPOLAMINE BROMIDE]
Not Active: IC50 [1] | IC50 [2] | Ki [2] | IC50 [3] | IC50 [4] | IC50 [5] | IC50 [6]

Cc1nnc(NS(=O)(=O)c2ccc(N)cc2)s1 [SULFAMETHIZOLE]
Not Active: IC50 [1] | IC50 [2] | Ki [2] | IC50 [3] | IC50 [4] | IC50 [5] | IC50 [6]

Cc1ccc(S(=O)(=O)NC(=O)NN2CCCCCC2)cc1 [TOLAZAMIDE]
Not Active: IC50 [1] | IC50 [2] | Ki [2] | IC50 [3] | IC50 [4] | IC50 [5] | IC50 [6]

CCC(C)(C)C(=O)O[C@H]1C[C@@H](C)C=C2C=C[C@H](C)[C@H](CC[C@@H]3C[C@@H](O)CC(=O)O3)[C@H]21 [SIMVASTATIN]
Not Active: IC50 [1] | IC50 [2] | Ki [2] | IC50 [3] | IC50 [4] | IC50 [5] | IC50 [6]

Cc1ccnc(NS(=O)(=O)c2ccc(N)cc2)n1 [SULFAMERAZINE]
Not Active: IC50 [1] | IC50 [2] | Ki [2] | IC50 [3] | IC50 [4] | IC50 [5] | IC50 [6]

OC[C@@H](O)[C@@H](O)[C@H](O)[C@H](O)CO [MANNITOL]
Not Active: IC50 [1] | IC50 [2] | Ki [2] | IC50 [3] | IC50 [4] | IC50 [5] | IC50 [6]

CCN(CC)N=O [N-NITROSODIETHYLAMINE]
Not Active: IC50 [1] | IC50 [2] | Ki [2] | IC50 [3] | IC50 [4] | IC50 [5] | IC50 [6]

CC(=O)O[C@]1(C(C)=O)CC[C@H]2[C@@H]3C[C@H](C)C4=CC(=O)CC[C@]4(C)[C@H]3CC[C@@]21C [MEDROXYPROGESTERONE ACETATE]
Not Active: IC50 [1] | IC50 [2] | Ki [2] | IC50 [3] | IC50 [4] | IC50 [5] | IC50 [6]

CCN1CCCC1CNC(=O)c1cc(S(N)(=O)=O)ccc1OC (stereo not given) [SULPIRIDE]
Not Active: IC50 [1] | IC50 [2] | Ki [2] | IC50 [3] | IC50 [4] | IC50 [5] | IC50 [6]

CN1C[C@H](CNC(=O)OCc2ccccc2)C[C@@H]2c3cccc4c3c(cn4C)C[C@H]21 [METERGOLINE]
Not Active: IC50 [1] | IC50 [2] | Ki [2] | IC50 [3] | IC50 [4] | IC50 [5] | IC50 [6]

CC(Cl)(Cl)Cl [TRICHLOROETHANE]
Not Active: IC50 [1] | IC50 [2] | Ki [2] | IC50 [3] | IC50 [4] | IC50 [5] | IC50 [6]

CC1=C(/C=C/C(C)=C/C=C/C(C)=C/C(=O)O)C(C)(C)CCC1 [TRETINOIN]
Not Active: IC50 [1] | IC50 [2] | Ki [2] | IC50 [3] | IC50 [4] | IC50 [5] | IC50 [6]

C=CCc1ccc2c(c1)OCO2 [SAFROLE]
Not Active: IC50 [1] | IC50 [2] | Ki [2] | IC50 [3] | IC50 [4] | IC50 [5] | IC50 [6]

C1CCN2C[C@@H]3C[C@@H](CN4CCCC[C@@H]34)[C@H]2C1 [SPARTEINE]
Not Active: IC50 [1] | IC50 [2] | Ki [2] | IC50 [3] | IC50 [4] | IC50 [5] | IC50 [6]
